No end group written: not given here.
Tests used:
[1] = system: anti-YQRFSR antibody 3RBF-SAB; assay: Competitive ELISA immuno-assay for Opiorphin; format: binding, rabbit; conditions: at 500 ng/ml final concentration
Text: Y represents the antibody directed against Sialorphin.
The peptide was coated on the plastic support of the micro-titration plate (96-well-ImmunoPlate, Nunc).
Inter-assay variability was less than 10%.

acute mechanical pain = conditions: rat, pin-pain test, compared with morphine; cited from earlier work

Substance	recognition by the antibody (specificity of the immuno-assay) [1]	pain-suppressive potency (acute mechanical pain)
QHNPR (Sialorphin; UniProt P13432 29-33, looked up)	not recognized	–
QRFSR [Opiorphin, QRFSR]	–	as effective as morphine

From US20140193843A1 (Institut Pasteur, priority 2008, published 2014)
